# Experimental data as given in ChEMBL document CHEMBL4330083, “Synthesis and evaluation of isoprenylation-resveratrol dimer derivatives against Alzheimer's disease” (Eur J Med Chem, 2019).
# Key:
# Type in all cases: functional
# [1] = tested on: PC-12; assay: (§1) Neuroprotection against H2O2-induced oxidative damage in rat PC12 cells assessed as reduction in ROS production by measuring mean fluorescence intensity at 2.5 uM preincubated for 4 hrs followed by H2O2 addition measured after 24 hrs by DCFH-DA staining-based flow cytometric analysis (reference value: 102489)
# [2] = tested on: PC-12; assay: Neuroprotection against H2O2-induced oxidative damage in rat PC12 cells assessed as early apoptotic cells at 2.5 uM after 24 hrs in presence of H2O2 by annexin V-FITC/propidium iodide staining based flow cytometric analysis (reference value: 29.3%)
# [3] = tested on: PC-12; assay: Neuroprotection against H2O2-induced oxidative damage in rat PC12 cells assessed as necrotic cells at 2.5 uM after 24 hrs in presence of H2O2 by annexin V-FITC/propidium iodide staining based flow cytometric analysis (reference value: 0.4%)
# [4] = tested on: PC-12; assay: Neuroprotection against H2O2-induced oxidative damage in rat PC12 cells assessed as early apoptotic cells at 5 uM after 24 hrs in presence of H2O2 by annexin V-FITC/propidium iodide staining based flow cytometric analysis (reference value: 29.3%)
# [5] = tested on: PC-12; assay: Neuroprotection against H2O2-induced oxidative damage in rat PC12 cells assessed as late apoptotic cells at 5 uM after 24 hrs in presence of H2O2 by annexin V-FITC/propidium iodide staining based flow cytometric analysis (reference value: 6.2%)
# [6] = tested on: PC-12; assay: Neuroprotection against H2O2-induced oxidative damage in rat PC12 cells assessed as necrotic cells at 5 uM after 24 hrs in presence of H2O2 by annexin V-FITC/propidium iodide staining based flow cytometric analysis (reference value: 0.4%)
# [7] = tested on: PC-12; assay: Neuroprotection against H2O2-induced oxidative damage in rat PC12 cells assessed as viable cells at 5 uM after 24 hrs in presence of H2O2 by annexin V-FITC/propidium iodide staining based flow cytometric analysis (reference value: 64.1%); conditions: PC-12, 24 h, read-out: Activity
# [8] = tested on: PC-12; assay: Neuroprotection against H2O2-induced oxidative damage in rat PC12 cells assessed as early apoptotic cells at 10 uM after 24 hrs in presence of H2O2 by annexin V-FITC/propidium iodide staining based flow cytometric analysis (reference value: 29.3%)
# [9] = tested on: PC-12; assay: Neuroprotection against H2O2-induced oxidative damage in rat PC12 cells assessed as late apoptotic cells at 10 uM after 24 hrs in presence of H2O2 by annexin V-FITC/propidium iodide staining based flow cytometric analysis (reference value: 6.2%)
# [10] = tested on: PC-12; assay: Neuroprotection against H2O2-induced oxidative damage in rat PC12 cells assessed as necrotic cells at 10 uM after 24 hrs in presence of H2O2 by annexin V-FITC/propidium iodide staining based flow cytometric analysis (reference value: 0.4%)
# [11] = tested on: PC-12; assay: Neuroprotection against H2O2-induced oxidative damage in rat PC12 cells assessed as viable cells at 10 uM after 24 hrs in presence of H2O2 by annexin V-FITC/propidium iodide staining based flow cytometric analysis (reference value: 64.1%); conditions: PC-12, 24 h, read-out: Activity
# [12] = tested on: PC-12; assay: Neuroprotection against H2O2-induced oxidative damage in rat PC12 cells assessed as intracellular Ca2+ level by measuring mean fluorescence intensity at 5 uM after 24 hrs in presence of H2O2 by Fluo-3/AM staining based flow cytometric analysis (reference value: 51697)
# [13] = tested on: PC-12; assay: Neuroprotection against H2O2-induced oxidative damage in rat PC12 cells assessed as intracellular Ca2+ level by measuring mean fluorescence intensity at 10 uM after 24 hrs in presence of H2O2 by Fluo-3/AM staining based flow cytometric analysis (reference value: 51697)
# [14] = Neuroprotection against H2O2-induced inflammation in […] cells assessed as reduction in ROS production by measuring mean fluorescence intensity at 5 uM after 18 hrs by DCFH-DA staining-based flow cytometric analysis (reference value: 20004)
# [15] = tested on: PC-12; assay: as §1, with “82616)” for “102489)”
# [16] = tested on: PC-12; assay: as §1, with “5” for “2.5”, “82616)” for “102489)”
# [17] = tested on: PC-12; assay: as §1, with “10” for “2.5”, “82616)” for “102489)”
# [18] = tested on: PC-12; assay: Neuroprotection against H2O2-induced oxidative damage in rat PC12 cells assessed as necrotic cells at 2.5 uM after 24 hrs in presence of H2O2 by annexin V-FITC/propidium iodide staining based flow cytometric analysis (reference value: 4.5%)
# [19] = tested on: PC-12; assay: Neuroprotection against H2O2-induced oxidative damage in rat PC12 cells assessed as late apoptotic cells at 5 uM after 24 hrs in presence of H2O2 by annexin V-FITC/propidium iodide staining based flow cytometric analysis (reference value: 29.8%)
# [20] = tested on: PC-12; assay: Neuroprotection against H2O2-induced oxidative damage in rat PC12 cells assessed as necrotic cells at 5 uM after 24 hrs in presence of H2O2 by annexin V-FITC/propidium iodide staining based flow cytometric analysis (reference value: 4.5%)
# [21] = tested on: PC-12; assay: Neuroprotection against H2O2-induced oxidative damage in rat PC12 cells assessed as viable cells at 5 uM after 24 hrs in presence of H2O2 by annexin V-FITC/propidium iodide staining based flow cytometric analysis (reference value: 63.6%); conditions: PC-12, 24 h, read-out: Activity
# [22] = tested on: PC-12; assay: Neuroprotection against H2O2-induced oxidative damage in rat PC12 cells assessed as early apoptotic cells at 10 uM after 24 hrs in presence of H2O2 by annexin V-FITC/propidium iodide staining based flow cytometric analysis (reference value: 2.1%)
# [23] = tested on: PC-12; assay: Neuroprotection against H2O2-induced oxidative damage in rat PC12 cells assessed as viable cells at 10 uM after 24 hrs in presence of H2O2 by annexin V-FITC/propidium iodide staining based flow cytometric analysis (reference value: 63.6%); conditions: PC-12, 24 h, read-out: Activity
# [24] = tested on: PC-12; assay: Neuroprotection against H2O2-induced oxidative damage in rat PC12 cells assessed as mitochondrial membrane potential at 10 uM after 24 hrs in presence of H2O2 by Jc-1 staining based flow cytometric analysis (reference value: 16.35 +/- 3.19%)
# [25] = tested on: PC-12; assay: Neuroprotection against H2O2-induced oxidative damage in rat PC12 cells assessed as intracellular Ca2+ level by measuring mean fluorescence intensity at 10 uM after 24 hrs in presence of H2O2 by Fluo-3/AM staining based flow cytometric analysis (reference value: 43156)
# [26] = Neuroprotection against LPS-induced inflammation in […] cells assessed as reduction in ROS production by measuring mean fluorescence intensity at 2.5 uM after 18 hrs by DCFH-DA staining-based flow cytometric analysis (reference value: 70385)
# [27] = Neuroprotection against LPS-induced inflammation in […] cells assessed as reduction in ROS production by measuring mean fluorescence intensity at 5 uM after 18 hrs by DCFH-DA staining-based flow cytometric analysis (reference value: 70385)
# [28] = Neuroprotection against H2O2-induced inflammation in […] cells assessed as reduction in ROS production by measuring mean fluorescence intensity at 2.5 uM after 18 hrs by DCFH-DA staining-based flow cytometric analysis (reference value: 11273)
structure (smiles),measurement,setting,value
CC(C)=CCc1c(O)cc(/C=C/c2ccc3c(c2)[C@H](c2cc(O)c(CC=C(C)C)c(O)c2)[C@@H](c2ccc(O)cc2)O3)cc1O,Flu intensity,[1],97612
same,Activity,[2],19.4%
same,Activity,[3],0.4%
same,Activity,[4],13.1%
same,Activity,[5],4%
same,Activity,[6],0.7%
same,viability at 5 µM,[7],82.2%
same,Activity,[8],10.3%
same,Activity,[9],0.7%
same,Activity,[10],0.7%
same,viability at 10 µM,[11],88.4%
same,Flu intensity,[12],38796
same,Flu intensity,[13],25664
same,Flu intensity,[14],11602
CC(C)=CCc1c(O)cc(/C=C/c2ccc3c(c2)[C@H](c2cc(O)c4c(c2)OC(C)(C)CC4)[C@@H](c2ccc(O)cc2)O3)cc1O,Flu intensity,[15],61043
same,Flu intensity,[16],58560
same,Flu intensity,[17],56274
same,Activity,[18],4.8%
same,Activity,[19],12.4%
same,Activity,[20],1.8%
same,viability at 5 µM,[21],84%
same,Activity,[22],1.9%
same,viability at 10 µM,[23],92.7%
same,Activity,[24],83.23%
same,Flu intensity,[25],35826
same,Flu intensity,[26],55345
same,Flu intensity,[27],51980
same,Flu intensity,[28],11086
